{
  "source": "patent US20230212316A1",
  "about": "“IgG EPITOPE PEPTIDES THAT BIND […] AND METHODS OF USE THEREOF” (priority 2021, published 2023)",
  "key": {"plasma IgM": {"test_system": "plasma IgM", "assay": "Pre-clinical RA peptide ELISA: plasma IgM binding to IgG1 peptides", "set-up": "species or system human", "settings": "CCP− controls and anti-CCP+ subjects who do not develop RA imminently compared to anti-CCP+ subjects who do develop RA imminently; FIG. 10A", "text": "Subjects were ≥18 years old."}, "plasma IgG": {"test_system": "plasma IgG", "settings": "anti-CCP+ subjects who later develop RA compared to anti-CCP− subjects and CCP+ subjects who do not develop RA; FIG. 10B", "text": "Human Subjects: Human subjects research was approved by the University of Wisconsin (UW) Institutional Review Board and complied with the Helsinki Declaration. Most sera were obtained from the UW Rheumatology Biorepository, which includes rheumatoid arthritis, systemic lupus erythematosus, Sjögren's disease (SjD), spondyloarthropathy, and controls (including current and never smokers) collected prior to 2019. Subjects were ≥18 years old. All subjects with rheumatic disease were confirmed to have that disease by a rheumatologist. […] Controls were matched by age and gender and carried none of the following diagnoses: RA, lupus, Sjögren's disease, scleroderma, psoriasis, psoriatic arthritis, ankylosing spondylitis, reactive arthritis, ulcerative colitis, Crohn's disease, multiple sclerosis, type I diabetes, hematologic malignancy, or past COVID-19.\nEnzyme Linked Immunosorbent Assay (ELISA): For peptide ELISA, plates were coated with 5 μg/ml streptavidin (Thermo Fisher Scientific) for 1 hour at room temperature (RT) or overnight at 4 degrees Celsius, washed with PBS, then coated with 0.1-1.0 μM of peptide conjugated to biotin at the C terminus (Biomatik, Kitchener, Canada or Peptide2.0, Chantilly, Va., USA) for 1 hour at RT. For IgG Fc ELISA, plates were coated overnight at 4° C. with 10 μg/ml IgG Fc in PBS in 4 forms: treated with PADs in buffer, treated with 0.1M KOCN in dH2O, diluted in citrullination buffer, diluted in dH2O. After washing with PBS, plates were blocked for 1 hour to overnight at RT with 5% non-fat dried milk in 0.2% Tween 20 in PBS (serum ELISA block) or 1% BSA in PBS (mAMPA ELISA block without 0.1% Tween 20). Sera diluted 1:100, 1:200 or 1:2000 in serum ELISA block or 1 μg/m1mAMPAs in mAMPA ELISA block were applied to plates overnight at 4° C. […] After one hour at RT, plates were washed, developed with 3,3′,5,5′-tetramethylbenzidine (Thermo Fisher Scientific), then stopped with 0.18 M sulfuric acid. Plates were read on a FilterMAX F3 (Molecular Devices, San Jose, USA) at 450 and 562, with 562 values subtracted from 450 values for each sample. For each sample, absorbance values for uncoated wells were subtracted from peptide- or Fc-coated wells to exclude non-specific binding, and absorbance values for PAD-containing buffer were subtracted from wells coated with PAD-treated IgG Fc to exclude anti-PAD reactivity."}, "[1]": {"test_system": "serum IgM (rheumatoid factors)", "assay": "Peptide ELISA: serum IgM binding to biotinylated IgG1-derived peptides", "set-up": "species or system human", "settings": "for IgM binding to the peptide: Sjogren's disease subjects previously RF positive versus matched controls, FIG. 9B; for IgM that binds to the peptide: COVID-19 convalescent subjects versus RA+, RA−, smokers and naïve controls, FIG. 8A"}, "[2]": {"test_system": "serum IgG (rheumatoid factors)", "assay": "Peptide ELISA: serum IgG binding to biotinylated IgG1-derived peptides", "set-up": "species or system human", "settings": "for IgG binding to the peptide: Sjogren's disease subjects previously RF positive versus matched controls, FIG. 9B; for Serum IgG binding to the peptide compared to controls: FIG. 3"}, "[3]": {"settings": "COVID-19 convalescent subjects, 5 weeks post-symptom resolution (n=121)"}, "[4]": {"settings": "Control (non-smoking COVID-19 naïve controls without autoimmune disease, n=54)"}, "[5]": {"settings": "RA+ (seropositive rheumatoid arthritis subjects, n=31)"}, "[6]": {"settings": "RA− (seronegative rheumatoid arthritis subjects, n=26)"}},
  "note": "Where no end group is shown, it is not given here. [ ]: non-standard residue; d: D form. Cit = NC(=O)NCCC[C@H](N)C(=O)O",
  "data": [
    {"sequence": "LYSKLTVDKSBWQQGNVFS (LYSKLTVDKS[Cit]WQQGNVFS) [Peptide P01857-289B, citrulline (B)-containing IgG1 peptide, position 289]", "values": [
      {"measurement": "Plasma IgM that binds to the peptide", "setting": "plasma IgM", "result": "higher"}
    ]},
    {"sequence": "LYSJLTVDJSRWQQGNVFS [Peptide P01857-289J]", "values": [
      {"measurement": "Plasma IgG that binds to the peptide", "setting": "plasma IgG", "result": "higher"}
    ]},
    {"sequence": "DKTHTCPPCPAPELLG (IgG epitope) [Peptide P01857-104, native IgG1 hinge peptide, position 104]", "values": [
      {"measurement": "Percent of subjects that would be considered seropositive for IgM antibodies against the peptide using a preliminary cutoff", "setting": "[1]; [3]", "result": 14, "unit": "%"},
      {"measurement": "Percent of subjects that would be considered seropositive for IgM antibodies against the peptide using a preliminary cutoff", "setting": "[1]; [4]", "result": 2, "unit": "%"},
      {"measurement": "Percent of subjects that would be considered seropositive for IgM antibodies against the peptide using a preliminary cutoff", "setting": "[1]; [5]", "result": 23, "unit": "%"},
      {"measurement": "Percent of subjects that would be considered seropositive for IgM antibodies against the peptide using a preliminary cutoff", "setting": "[1]; [6]", "result": 12, "unit": "%"},
      {"measurement": "IgM binding to the peptide", "setting": "[1]", "result": "bound"},
      {"measurement": "Percent of subjects that would be considered seropositive for IgM antibodies against the peptide using a preliminary cutoff", "setting": "[1]; Smoker (current smokers, n=10)", "result": 20, "unit": "%"},
      {"measurement": "IgG binding to the peptide", "setting": "[2]", "result": "bound"}
    ]},
    {"sequence": "TYICNVNHJPSNTJVDJJVEPJSC [Peptide P01857-80J]", "values": [
      {"measurement": "Plasma IgG that binds to the peptide", "setting": "plasma IgG", "result": "higher"}
    ]},
    {"sequence": "LAPSSJSTSGGTAALGC [Peptide P01857-11J]", "values": [
      {"measurement": "Plasma IgG that binds to the peptide", "setting": "plasma IgG", "result": "higher"}
    ]},
    {"sequence": "RDELTKNQVSLTCLVK (IgG epitope) [Peptide P01857-238, native IgG1 peptide, position 238]", "values": [
      {"measurement": "IgM that binds to the peptide", "setting": "[1]", "result": "increased"},
      {"measurement": "Percent of subjects that would be considered seropositive for IgM antibodies against the peptide using a preliminary cutoff", "setting": "[1]; [3]", "result": 44, "unit": "%"},
      {"measurement": "Percent of subjects that would be considered seropositive for IgM antibodies against the peptide using a preliminary cutoff", "setting": "[1]; [4]", "result": 0, "unit": "%"},
      {"measurement": "Percent of subjects that would be considered seropositive for IgM antibodies against the peptide using a preliminary cutoff", "setting": "[1]; [5]", "result": 6, "unit": "%"},
      {"measurement": "Percent of subjects that would be considered seropositive for IgM antibodies against the peptide using a preliminary cutoff", "setting": "[1]; [6]", "result": 4, "unit": "%"},
      {"measurement": "IgM binding to the peptide", "setting": "[1]", "result": "not bound"},
      {"measurement": "Percent of subjects that would be considered seropositive for IgM antibodies against the peptide using a preliminary cutoff", "setting": "[1]; Smoker (current smokers, n=10)", "result": 0, "unit": "%"},
      {"measurement": "IgG binding to the peptide", "setting": "[2]", "result": "not bound"}
    ]},
    {"sequence": "LTVDKSRWQQGNVFSC (IgG epitope) [Peptide P01857-293, native IgG1 peptide, position 293]", "values": [
      {"measurement": "IgM that binds to the peptide", "setting": "[1]", "result": "increased"},
      {"measurement": "Percent of subjects that would be considered seropositive for IgM antibodies against the peptide using a preliminary cutoff", "setting": "[1]; [3]", "result": 12, "unit": "%"},
      {"measurement": "Percent of subjects that would be considered seropositive for IgM antibodies against the peptide using a preliminary cutoff", "setting": "[1]; [4]", "result": 0, "unit": "%"},
      {"measurement": "Percent of subjects that would be considered seropositive for IgM antibodies against the peptide using a preliminary cutoff", "setting": "[1]; [5]", "result": 3, "unit": "%"},
      {"measurement": "Percent of subjects that would be considered seropositive for IgM antibodies against the peptide using a preliminary cutoff", "setting": "[1]; [6]", "result": 0, "unit": "%"},
      {"measurement": "IgM binding to the peptide", "setting": "[1]", "result": "not bound"},
      {"measurement": "Percent of subjects that would be considered seropositive for IgM antibodies against the peptide using a preliminary cutoff", "setting": "[1]; Smoker (current smokers, n=10)", "result": 0, "unit": "%"},
      {"measurement": "IgG that binds to the peptide", "setting": "[2]; COVID-19 convalescent subjects versus RA+, RA−, smokers and naïve controls, FIG. 8B", "result": "increased"},
      {"measurement": "IgG binding to the peptide", "setting": "[2]", "result": "not bound"}
    ]},
    {"sequence": "KDTLMISRTPEVTCVV (IgG epitope) [Peptide P01857-131, native IgG1 peptide, position 131]", "values": [
      {"measurement": "IgM that binds to the peptide", "setting": "[1]", "result": "increased"},
      {"measurement": "Percent of subjects that would be considered seropositive for IgM antibodies against the peptide using a preliminary cutoff", "setting": "[1]; [3]", "result": 45, "unit": "%"},
      {"measurement": "Percent of subjects that would be considered seropositive for IgM antibodies against the peptide using a preliminary cutoff", "setting": "[1]; [4]", "result": 2, "unit": "%"},
      {"measurement": "Percent of subjects that would be considered seropositive for IgM antibodies against the peptide using a preliminary cutoff", "setting": "[1]; [5]", "result": 0, "unit": "%"},
      {"measurement": "Percent of subjects that would be considered seropositive for IgM antibodies against the peptide using a preliminary cutoff", "setting": "[1]; [6]", "result": 0, "unit": "%"},
      {"measurement": "IgM binding to the peptide", "setting": "[1]", "result": "not bound"},
      {"measurement": "Percent of subjects that would be considered seropositive for IgM antibodies against the peptide using a preliminary cutoff", "setting": "[1]; Smoker (current smokers, n=10)", "result": 0, "unit": "%"},
      {"measurement": "IgG binding to the peptide", "setting": "[2]", "result": "not bound"}
    ]},
    {"sequence": "YJCJVSNJALPAP [Peptide P01857-202J]", "values": [
      {"measurement": "Plasma IgG that binds to the peptide", "setting": "plasma IgG", "result": "higher"}
    ]},
    {"sequence": "CPPCPAPELLGGPSV (IgG epitope) [Peptide P01857-109, native peptide from the hinge region of IgG1 starting at position 109]", "values": [
      {"measurement": "Serum IgG binding to the peptide compared to controls", "setting": "[2]; anti-CCP+RF+ RA", "result": "trend towards increased binding"},
      {"measurement": "Serum IgG binding to the peptide compared to controls", "setting": "[2]; anti-CCP-RF− RA", "result": "no increased binding"},
      {"measurement": "Serum IgG binding to the peptide compared to controls", "setting": "[2]; anti-SSA+ Sjögren's disease", "result": "significantly increased binding"},
      {"measurement": "Serum IgG binding to the peptide compared to controls", "setting": "[2]; lupus", "result": "but not lupus or spondyloarthropathy serum IgG, had significantly increased binding"},
      {"measurement": "Serum IgG binding to the peptide compared to controls", "setting": "[2]; spondyloarthropathy", "result": "but not lupus or spondyloarthropathy serum IgG, had significantly increased binding"}
    ]}
  ]
}
